The values that follow come from ChEMBL document CHEMBL5325462, “Regioselective synthesis and in vitro cytotoxicity evaluation of 3-thiooxindole derivatives: Tubulin polymerization inhibition and apoptosis inducing studies” (Bioorg Med Chem, 2023).

Molecules are shown by their SMILES. Active and inactive are the calls of the source. The calls are words filed in the database; no cut-off is given here.

One may read the IC50 as the concentration needed to halve the response being measured.

In test [1] the test system is HCT-116. As to the kind of experiment: Induction of nuclear morphological changes in human HCT-116 cells assessed as change in nuclear shape measured after 48 hrs by DAPI-staining based fluorescence microscopic analysis. The format is functional, cell-based.
In test [2] the test system is HCT-116. Kind of test: Induction of apoptosis in human HCT-116 cells assessed as necrotic cells at 6.64 uM incubated for 24 hrs by Annexin V-FITC/PI staining based flow cytometry analysis (Rvb= 0.0%). The format is functional. For orientation: A flow cytometer gives signals particle by particle.
Test [3] relates to Cell membrane. Kind of test: Induction of mitochondrial membrane potential loss in human HCT-116 cells assessed as polarized cells at 6.64 uM incubated for 72 hrs by JC-1 staining based flow cytometry analysis (reference value: 99.6 %). The format is subcellular.
The subject of test [4] is HCT-116. As to the kind of experiment: Induction of apoptosis in human HCT-116 cells assessed as viable cells at 13.28 uM incubated for 24 hrs by Annexin V-FITC/PI staining based flow cytometry analysis (Rvb= 99.7%). Particulars: read-out: Activity. The format is functional.
Test [5] relates to HCT-116. As to the kind of experiment: Induction of morphological changes in human HCT-116 cells assessed as cell nucleus shrinkage at 3.32 to 13.28 uM measured after 48 hrs by phase contrast microscope. The format is functional, cell-based. The note with it: dose 3.32-13.28 µM.
In test [6] the test system is HCT-116. Kind of test: Cell cycle arrest in human HCT-116 cells assessed as accumulation of cells in sub-G1 phase at 3.32 uM measured after 48 hrs by PI staining based flow cytometry method (reference value: 4.6%). The format is functional.
For test [7], the system named is HCT-116. Kind of test: Induction of apoptosis in human HCT-116 cells assessed as late apoptotic cells at 13.28 uM incubated for 24 hrs by Annexin V-FITC/PI staining based flow cytometry analysis (Rvb= 0.1%). The format is functional.
The test system of a further test is MCF7. As to the kind of experiment: Cytotoxicity against human MCF7 cells assessed as inhibition of cell growth measured after 72 hrs by MTT assay. Particulars: MCF7, 72 h. The format is functional, cell-based. (Tetrazolium assays rely on reduction of a dye to a coloured formazan, in cell work by metabolically active cells.)
The subject of test [8] is HCT-116. As to the kind of experiment: Cell cycle arrest in human HCT-116 cells assessed as accumulation of cells in G0/G1 phase at 6.64 uM measured after 48 hrs by PI staining based flow cytometry method (reference value: 79%). The format is functional.
Test [9] relates to Cell membrane. As to the kind of experiment: Induction of mitochondrial membrane potential loss in human HCT-116 cells assessed as polarized cells at 13.28 uM incubated for 72 hrs by JC-1 staining based flow cytometry analysis (reference value: 99.6 %). The format is subcellular.
Test [10] relates to HCT-116. Kind of test: Induction of morphological changes in human HCT-116 cells assessed as formation of necrotic bodies incubated for 24 hrs by acridine orange/ethidium bromide staining based fluorescence microscopic analysis. The format is functional, cell-based.
A further test deals with BT-474. As to the kind of experiment: Cytotoxicity against human BT-474 cells assessed as inhibition of cell growth measured after 72 hrs by MTT assay. The format is functional, cell-based. Particulars: BT-474, 72 h.
In test [11] the test system is HCT-116. As to the kind of experiment: Inhibition of colony formation in human HCT-116 cells at 3.32 to 13.28 uM measured after 14 days. The format is functional, cell-based. The note with it: dose 3.32-13.28 µM, time 14.0 day.
Test [12] concerns HCT-116. Kind of test: Induction of morphological changes in human HCT-116 cells assessed as formation of apoptotic bodies incubated for 24 hrs by acridine orange/ethidium bromide staining based fluorescence microscopic analysis. The format is functional, cell-based.

`CC(C)(C)S(=O)(=O)NCC1(Sc2nc3ccccc3[nH]2)C(=O)N(Cc2ccc(Br)cc2)c2ccccc21` (centres undefined): the Activity entry with HCT-116 [1] is “Dose-Dependent Effect”; with HCT-116 [2], 10.4%; with Cell membrane [3] it was 94.1%; in the test on HCT-116 [6] it was 24.4%; with HCT-116 [7], 84.1%; with HCT-116 [8], 49.2%. In addition, the Activity with Cell membrane [9] is 86.7%; in the test on HCT-116 [12], “Dose-Dependent Effect”. The viability at 13.28 µM in the test with HCT-116 [4] stood at 4.2%. Moreover, the outcome with HCT-116 [5] and in the test with HCT-116 [10] was Active. For the same compound, the concentration for half-maximal inhibition (IC50) with MCF7 amounted to 12.8 µM; with BT-474 it was 14.2 µM. In the test on HCT-116 [11], the inhibition entry is “Active”.
